The source of these data is patent US20250092044A1, “Kinase Inhibitors” (Incyte Corporation, priority 2023, published 2025).

The target in one data set is CYP3A4 (Homo sapiens (Human), UniProt P08684). The data set is described as follows: Time Dependent Inhibition (TDI) of CYP. Format: in vitro ADME. The conditions noted are these: for TDI 3A4: Kobs, 30 min pre-incubation with NADPH; for TDI 3A4 / Kobs: human liver microsomes, 10 μM; for CYP function remaining / Kobs: time dependent inhibition of CYPs; for CYP function remaining: after pre-incubation with NADPH. The text has this:
Inhibition of P450 enzymes can be classified as either reversible or time-dependent inhibition (TDI). This in vitro assay is designed to detect an increase in CYP inhibition as a result of biotransformation and/or bioactivation (TDI). Potential mechanisms for this include the formation of a tight-binding, quasi-irreversible inhibitory metabolite complex or the inactivation of P450 enzymes by covalent adduct formation of metabolites. While this experiment employs a 10-fold dilution to diminish metabolite concentrations and therefore effects of reversible inhibition, it is possible (but not common) that a metabolite that is an extremely potent CYP inhibitor could result in a positive result.
The results are from a cocktail of CYP specific probe substrates at 4 times their Km concentrations for CYP2C9 (diclofenac), CYP2C19 (S-mephenytoin), CYP2D6 (bufuralol) and CYP3A4 (midazolam) using human liver microsomes (HLM). The HLMs were pre-incubated with test compound(s) at a concentration 10 μM for 30 min in the presence (+N) or absence (−N) of a NADPH regenerating system, diluted 10-fold, and incubated for 8 min in the presence of the substrate cocktail with the addition of a fresh aliquot of NADPH regenerating system. A calibration curve of metabolite standards was used to quantitatively measure the enzyme activity using LC-MS/MS. In addition, incubations with known time dependent inhibitors, tienilic aicd (CYP2C9), ticlopidine (CYP2C19), paroxetine (CYP2D6), and troleandomycin (CYP3A4), used as positive controls were pre-incubated 30 min with or without a NADPH regenerating system.
The percentage of control CYP2C9, CYP2C19, CYP2D6, and CYP3A4 activity remaining following pre-incubation of the compounds with NADPH is corrected for the corresponding control vehicle activity and then calculated based on 0 minutes as 100%. A linear regression plot of the natural log of % activity remaining versus time for each isozyme is used to calculate the slope. The −slope is equal to the rate of enzyme loss, or the Kobs. […] Examples 29-30 have Kobs from 0.005-0.02 indicating a medium to low potential for time dependent inhibition of CYPs corresponding to 70-90% CYP function remaining.

For data set [1], the system named is FLT3. In words: FLT3 Enzymatic Assay. In kind it is biochemical. Put shortly: (§1)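 Room-temperature HTRF kinase assay (665/620 nm ratio) with 0.011 nM FLT3, 1 mM ATP, 500 nM biotinylated TK substrate in HEPES pH 7.0 buffer with MgCl2 and DTT; 0.5% DMSO final. Read after 60 min incubation; IC50 fitted from percent control activity versus log concentration, no-ATP wells as negative control.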

Data set [2] has as its target FLT3 (Homo sapiens (Human), UniProt P36888). The data set is described as follows: FLT3 Enzymatic Assay. Format: biochemical. The following applies: 1 mM ATP. The essentials:
as §1

Data set [3] has as its system TRKA. The data set is described as follows: TRKA Enzymatic Assay. Format: biochemical. Put shortly: (§2)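 Reaction contained 0.58 nM TRKA, 1 mM ATP, 500 nM biotinylated TK substrate and 62.5 nM SEB reagent in HEPES 50 mM pH 7.0 with 10 mM MgCl2, 1 mM DTT and 0.1 mM orthovanadate, 0.5% DMSO, ATP-initiated. After 60 min at room temperature, the TR-FRET 665/620 nm ratio was read. IC50 was fitted from percent control activity versus log concentration, with DMSO and no-ATP wells as controls.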

The target of data set [4] is TRKA (Homo sapiens (Human), UniProt P04629). In words: TRKA Enzymatic Assay. In kind it is biochemical. The following applies: 1 mM ATP. The essentials:
as §2

Data set [5] deals with catalytic domain (JH1) of human JAK2 (Homo sapiens (Human), UniProt O60674). In words: JAK2 LanthaScreen JH1 Binding Assay. The following applies: read-out: JH1 Bind IC50. The essentials: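 FLAG-tagged biotinylated JH1 (aa 826-1132, baculovirus-expressed), 1.5 nM, with serially diluted compound, 50 nM fluorescent tracer and 0.5 nM streptavidin-Tb in pH 7.5 Tris buffer, 2 h at 25 °C; nonspecific binding with 2 mM ATP. TR-FRET read, IC50 by four-parameter fit.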
catalytic domain (JH1) of human JAK2, sequence (O60674 826-1132): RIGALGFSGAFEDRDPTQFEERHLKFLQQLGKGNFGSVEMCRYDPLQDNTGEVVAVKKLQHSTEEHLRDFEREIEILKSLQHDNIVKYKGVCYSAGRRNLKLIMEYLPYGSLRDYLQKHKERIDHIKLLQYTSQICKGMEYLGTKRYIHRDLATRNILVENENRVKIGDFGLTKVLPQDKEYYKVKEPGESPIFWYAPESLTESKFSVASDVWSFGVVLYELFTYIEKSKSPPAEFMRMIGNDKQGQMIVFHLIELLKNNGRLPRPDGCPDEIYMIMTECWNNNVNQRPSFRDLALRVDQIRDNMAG
A general note: TR-FRET usually uses a lanthanide donor and a delayed reading to cut background.

Structures are written as SMILES.

TRKA (Homo sapiens (Human), UniProt P04629), sequence (P04629 33-796, species assumed): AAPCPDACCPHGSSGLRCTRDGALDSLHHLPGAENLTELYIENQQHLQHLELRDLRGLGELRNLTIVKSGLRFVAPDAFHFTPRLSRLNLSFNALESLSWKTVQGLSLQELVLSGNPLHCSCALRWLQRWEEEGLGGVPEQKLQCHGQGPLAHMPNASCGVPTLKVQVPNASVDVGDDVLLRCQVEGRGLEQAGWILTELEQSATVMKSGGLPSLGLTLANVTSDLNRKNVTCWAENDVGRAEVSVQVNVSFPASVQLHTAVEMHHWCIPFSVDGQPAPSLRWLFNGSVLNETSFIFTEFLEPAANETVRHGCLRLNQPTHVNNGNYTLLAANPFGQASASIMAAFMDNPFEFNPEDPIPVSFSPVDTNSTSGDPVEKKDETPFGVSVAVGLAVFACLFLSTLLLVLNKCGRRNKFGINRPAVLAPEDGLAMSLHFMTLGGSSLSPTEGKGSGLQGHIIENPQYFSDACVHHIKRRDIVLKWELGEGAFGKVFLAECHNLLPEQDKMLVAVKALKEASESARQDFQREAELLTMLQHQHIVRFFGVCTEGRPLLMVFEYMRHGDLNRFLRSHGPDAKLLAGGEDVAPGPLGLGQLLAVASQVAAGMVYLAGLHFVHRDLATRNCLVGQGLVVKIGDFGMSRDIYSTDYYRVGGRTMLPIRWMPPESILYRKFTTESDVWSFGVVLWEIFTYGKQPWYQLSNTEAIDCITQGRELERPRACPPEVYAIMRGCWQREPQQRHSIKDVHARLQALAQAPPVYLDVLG
FLT3 (Homo sapiens (Human), UniProt P36888), sequence (P36888 27-993, species assumed): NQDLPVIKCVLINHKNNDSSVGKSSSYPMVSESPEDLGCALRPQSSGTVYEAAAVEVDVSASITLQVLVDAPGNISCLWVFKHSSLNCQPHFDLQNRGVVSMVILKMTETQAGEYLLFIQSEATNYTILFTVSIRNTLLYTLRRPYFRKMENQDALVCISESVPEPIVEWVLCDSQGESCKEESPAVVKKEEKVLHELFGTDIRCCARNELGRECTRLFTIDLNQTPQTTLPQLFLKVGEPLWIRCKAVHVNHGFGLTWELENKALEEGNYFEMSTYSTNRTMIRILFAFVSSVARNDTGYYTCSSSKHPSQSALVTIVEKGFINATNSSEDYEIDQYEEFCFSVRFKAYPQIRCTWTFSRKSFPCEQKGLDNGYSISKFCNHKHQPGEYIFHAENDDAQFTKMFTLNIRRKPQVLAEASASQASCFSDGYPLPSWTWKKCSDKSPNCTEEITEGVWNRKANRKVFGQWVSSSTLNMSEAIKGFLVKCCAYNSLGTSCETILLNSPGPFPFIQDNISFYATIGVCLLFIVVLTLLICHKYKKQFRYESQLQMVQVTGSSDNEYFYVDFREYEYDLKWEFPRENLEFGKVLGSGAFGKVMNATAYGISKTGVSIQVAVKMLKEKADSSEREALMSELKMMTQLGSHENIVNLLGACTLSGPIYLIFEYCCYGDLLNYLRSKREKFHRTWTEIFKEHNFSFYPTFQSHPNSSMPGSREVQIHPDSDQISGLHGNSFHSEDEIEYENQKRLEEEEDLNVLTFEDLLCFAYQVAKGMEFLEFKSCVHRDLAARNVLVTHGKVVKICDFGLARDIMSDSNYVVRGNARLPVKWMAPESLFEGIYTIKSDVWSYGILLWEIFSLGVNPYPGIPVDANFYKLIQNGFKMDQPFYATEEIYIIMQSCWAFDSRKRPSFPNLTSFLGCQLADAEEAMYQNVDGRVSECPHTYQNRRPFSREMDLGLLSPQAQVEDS
CYP3A4, sequence (P08684 whole entry): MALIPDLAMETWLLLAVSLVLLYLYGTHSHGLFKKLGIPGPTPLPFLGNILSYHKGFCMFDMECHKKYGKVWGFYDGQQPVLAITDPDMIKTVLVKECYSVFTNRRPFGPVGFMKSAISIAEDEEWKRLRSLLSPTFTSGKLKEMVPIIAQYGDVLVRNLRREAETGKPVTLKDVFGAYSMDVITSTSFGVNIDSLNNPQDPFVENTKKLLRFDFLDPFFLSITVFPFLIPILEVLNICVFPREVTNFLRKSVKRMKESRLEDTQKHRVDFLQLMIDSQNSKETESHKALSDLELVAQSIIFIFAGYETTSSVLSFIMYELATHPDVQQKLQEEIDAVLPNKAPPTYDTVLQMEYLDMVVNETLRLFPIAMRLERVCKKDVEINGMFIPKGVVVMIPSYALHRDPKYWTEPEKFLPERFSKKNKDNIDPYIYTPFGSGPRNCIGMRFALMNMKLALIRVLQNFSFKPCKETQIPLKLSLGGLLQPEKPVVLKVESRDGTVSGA

`[2H]C([2H])([2H])n1c(=O)n([C@@H]2CC[C@@H](NC(=O)OC)C2)c2c3c(-c4ccc5c(c4)COC5(C)C)c(-c4ccc(C(=O)N(C)C)cc4)[nH]c3ncc21` [Example 30, methyl ((1R,3R)-3-(8-(1,1-dimethyl-1,3-dihydroisobenzofuran-5-yl)-7-(4-(dimethylcarbamoyl)phenyl)-3-(methyl-d3)-2-oxo-3,6-dihydroimidazo[4,5-d]pyrrolo[2,3-b]pyridin-1(2H)-yl)cyclopentyl)carbamate]: the “TDI 3A4” value on CYP3A4 was “⋄⋄ (>0.005 to ≤0.02)”. Also, in the data set with FLT3 [1], the “Selectivity FLT3/JH2 V617F” value is on record as “***** (selectivity of >5000-fold to ≤12500-fold)”. The results for the half-inhibitory concentration (IC50) (against FLT3 [2]; against TRKA [4]; in data set [5]) were 250 to 1250 nM, 250 to 1250 nM and > 1000 nM, respectively. The “Selectivity TRKA/JH2 V617F” value in the data set on TRKA [3] is listed as “***** (selectivity of >5000-fold to ≤12500-fold)”.
Consider `[2H]C([2H])([2H])N(Cc1ccc(-c2[nH]c3ncc4c(c3c2-c2ccc3c(c2)COC3(C)C)n([C@@H]2CC[C@@H](NC(=O)OC)C2)c(=O)n4C([2H])([2H])[2H])cc1)C([2H])([2H])[2H]` [Example 29, Methyl ((1R,3R)-3-(7-(4-((bis(methyl-d3)amino)methyl)phenyl)-8-(1,1-dimethyl-1,3-dihydroisobenzofuran-5-yl)-3-(methyl-d3)-2-oxo-3,6-dihydroimidazo[4,5-d]pyrrolo[2,3-b]pyridin-1(2H)-yl)cyclopentyl)carbamate], for which the “TDI 3A4” value on CYP3A4 is reported as “⋄⋄ (>0.005 to ≤0.02)”. Besides, the “Selectivity FLT3/JH2 V617F” value in the data set on FLT3 [1] is listed as “**** (selectivity of >1750-fold to ≤5000-fold)”. Further, the IC50 (in general, the concentration at which inhibition is half-maximal) at FLT3 [2] was 250 to 1250 nM; at TRKA [4], 1250 to 2500 nM; in data set [5], > 1000 nM. The “Selectivity TRKA/JH2 V617F” value in the data set with TRKA [3] was “****** (selectivity of >12500-fold)”.
Turning to `[2H]C([2H])([2H])N(Cc1ccc(-c2[nH]c3ncc4c(c3c2-c2ccc(OCCOC)cc2)n([C@@H]2CC[C@@H](NC(=O)OC)C2)c(=O)n4C([2H])([2H])[2H])cc1)C([2H])([2H])[2H]` [Example 27, Methyl ((1R,3R)-3-(7-(4-((bis(methyl-d3)amino)methyl)phenyl)-8-(4-(2-methoxyethoxy)phenyl)-3-(methyl-d3)-2-oxo-3,6-dihydroimidazo[4,5-d]pyrrolo[2,3-b]pyridin-1(2H)-yl)cyclopentyl)carbamate], the “TDI 3A4” value on CYP3A4 is listed as “⋄ (≤0.005)”. For the same compound, in the data set with FLT3 [1], the “Selectivity FLT3/JH2 V617F” value is recorded as “*** (selectivity of >1500-fold to ≤1750-fold)”. For the same compound, the figures for the IC50 (against FLT3 [2]; at TRKA [4]; in data set [5]) were 250 to 1250 nM, 1250 to 2500 nM and > 1000 nM, respectively. For the same compound, the “Selectivity TRKA/JH2 V617F” value with TRKA [3] was “***** (selectivity of >5000-fold to ≤12500-fold)”.
Consider `COC(=O)N[C@@H]1CC[C@@H](n2c(=O)n(C)c3cnc4[nH]c(-c5ccc(CN(C)C)cc5)c(-c5ccc(F)cc5)c4c32)C1` [Example 28, Methyl ((1R,3R)-3-(7-(4-((dimethylamino)methyl)phenyl)-8-(4-fluorophenyl)-3-methyl-2-oxo-3,6-dihydroimidazo[4,5-d]pyrrolo[2,3-b]pyridin-1(2H)-yl)cyclopentyl)carbamate], for which the “TDI 3A4” value on CYP3A4 was “⋄ (≤0.005)”. In addition, in the data set with FLT3 [1], the “Selectivity FLT3/JH2 V617F” value was “** (selectivity of >500-fold to ≤1500-fold)”. Besides, the IC50 against FLT3 [2] is 250 to 1250 nM; against TRKA [4], > 2500 nM; in data set [5], > 1000 nM. Also, in the data set with TRKA [3], the “Selectivity TRKA/JH2 V617F” value is reported as “**** (selectivity of >1750-fold to ≤5000-fold)”.
Take `[2H]C([2H])([2H])N(Cc1ccc(-c2[nH]c3ncc4c(c3c2-c2ccc3c(c2)CC(C)(C)O3)n([C@@H]2CC[C@@H](NC(=O)OC)C2)c(=O)n4C([2H])([2H])[2H])cc1)C([2H])([2H])[2H]` [Example 25, Methyl ((1R,3R)-3-(7-(4-((bis(methyl-d3)amino)methyl)phenyl)-8-(2,2-dimethyl-2,3-dihydrobenzofuran-5-yl)-3-(methyl-d3)-2-oxo-3,6-dihydroimidazo[4,5-d]pyrrolo[2,3-b]pyridin-1(2H)-yl)cyclopentyl)carbamate]: the “TDI 3A4” value on CYP3A4 is reported as “⋄ (≤0.005)”. The “Selectivity FLT3/JH2 V617F” value in the data set with FLT3 [1] is listed as “**** (selectivity of >1750-fold to ≤5000-fold)”. Also, the results for the IC50 (against FLT3 [2]; on TRKA [4]; in data set [5]) were 250 to 1250 nM, 250 to 1250 nM and > 1000 nM, respectively. In the data set on TRKA [3], the “Selectivity TRKA/JH2 V617F” value is reported as “**** (selectivity of >1750-fold to ≤5000-fold)”.
As to `[2H]C([2H])([2H])n1ncc2cc(-c3c(-c4cn(C)nc4OC)[nH]c4ncc5c(c34)n(C3CCOCC3)c(=O)n5C)ccc21` [Comparative Example B, reference compound], on CYP3A4, the “TDI 3A4” value is recorded as “⋄⋄⋄⋄ (≥0.04)”, the CYP function remaining entry is “about 30%” and the Kobs result was “around 0.04”. Moreover, in the data set with FLT3 [1], the “Selectivity FLT3/JH2 V617F” value was “* (selectivity of ≤500-fold)”. In addition, in the data set with TRKA [3], the “Selectivity TRKA/JH2 V617F” value is recorded as “** (selectivity of >500-fold to ≤1500-fold)”. The IC50 at TRKA [4] is > 2500 nM. Besides, the IC50 in data set [5] was > 1000 nM.
Take `CNC(=O)c1ccc(-c2[nH]c3ncc4c(c3c2-c2ccc3c(cnn3C(C)C)c2)n([C@@H]2CC[C@@H](NC(=O)OC)C2)c(=O)n4C)cc1F` [Example 12, Methyl ((1R,3R)-3-(7-(3-fluoro-4-(methylcarbamoyl)phenyl)-8-(1-isopropyl-1H-indazol-5-yl)-3-methyl-2-oxo-3,6-dihydroimidazo[4,5-d]pyrrolo[2,3-b]pyridin-1(2H)-yl)cyclopentyl)carbamate]: the “Selectivity FLT3/JH2 V617F” value with FLT3 [1] is listed as “****** (selectivity of >12500-fold)”. Besides, the half-inhibitory concentration (IC50) against FLT3 [2] was > 2500 nM; at TRKA [4] it was > 2500 nM; in data set [5] it was > 1000 nM. Moreover, the “Selectivity TRKA/JH2 V617F” value in the data set on TRKA [3] is “****** (selectivity of >12500-fold)”.
Consider `CCNC(=O)c1ccc(-c2[nH]c3ncc4c(c3c2-c2ccc3c(cnn3C(C)C)c2)n([C@@H]2CC[C@@H](NC(=O)OC)C2)c(=O)n4C)cc1F` [Example 6, Methyl ((1R,3R)-3-(7-(4-(ethylcarbamoyl)-3-fluorophenyl)-8-(1-isopropyl-1H-indazol-5-yl)-3-methyl-2-oxo-3,6-dihydroimidazo[4,5-d]pyrrolo[2,3-b]pyridin-1(2H)-yl)cyclopentyl)carbamate], for which the “Selectivity FLT3/JH2 V617F” value with FLT3 [1] is listed as “***** (selectivity of >5000-fold to ≤12500-fold)”. Also, the IC50 is 1250 to 2500 nM at FLT3 [2], 1250 to 2500 nM on TRKA [4] and > 1000 nM in data set [5]. Besides, the “Selectivity TRKA/JH2 V617F” value in the data set on TRKA [3] was “***** (selectivity of >5000-fold to ≤12500-fold)”.
Turning to `COc1nn(C)cc1-c1[nH]c2ncc3c(c2c1-c1ccc2c(cnn2C)c1)n(C1CCOCC1)c(=O)n3C` [Comparative Example A, reference compound], on CYP3A4, the “TDI 3A4” value is “⋄⋄⋄⋄ (≥0.04)”, the CYP function remaining entry is reported as “about 30%” and the Kobs entry is on record as “around 0.04”. Moreover, the “Selectivity FLT3/JH2 V617F” value in the data set with FLT3 [1] is listed as “* (selectivity of ≤500-fold)”. In the data set with TRKA [3], the “Selectivity TRKA/JH2 V617F” value is “** (selectivity of >500-fold to ≤1500-fold)”. Further, the IC50 in data set [5] is > 1000 nM.
As for `COC(=O)N[C@@H]1CC[C@@H](n2c(=O)n(C)c3cnc4[nH]c(-c5ccc(C(=O)NC6CC6(F)F)c(F)c5)c(-c5ccc6c(cnn6C(C)C)c5)c4c32)C1` (stereo partly drawn) [Example 9, Methyl ((1R,3R)-3-(7-(4-((2,2-difluorocyclopropyl)carbamoyl)-3-fluorophenyl)-8-(1-isopropyl-1H-indazol-5-yl)-3-methyl-2-oxo-3,6-dihydroimidazo[4,5-d]pyrrolo[2,3-b]pyridin-1(2H)-yl)cyclopentyl)carbamate], the “Selectivity FLT3/JH2 V617F” value with FLT3 [1] is “****** (selectivity of >12500-fold)”. The IC50 on FLT3 [2] was > 2500 nM; at TRKA [4], > 2500 nM; in data set [5], > 1000 nM. In addition, the “Selectivity TRKA/JH2 V617F” value in the data set with TRKA [3] is “****** (selectivity of >12500-fold)”.
